Experimental data: BindingDB's records for doi:10.7270/Q2F47MKR (Burnham Center For Chemical Genomics, 2010)
pIC50: −log10 of the molar value.

Experiment: blockers of orphan receptor GPR35 – imaging, image-based, set 2, SAR follow-up (AID 2480)

Structure (SMILES) | pIC50
Cc1c(C(=O)Nc2ccc3c(c2)OCCO3)sc2ncnc(O)c12 [N-(2,3-dihydro-1,4-benzodioxin-6-yl)-5-methyl-4-oxo-3H-thieno[2,3-d]pyrimidine-6-carboxamide] | < 4.49
O=C(CCCN1C(=O)/C(=C/c2ccc3c(c2)OCO3)SC1=S)Nc1ccc(C(=O)O)c(O)c1 [4-[[4-[(5Z)-5-(1,3-benzodioxol-5-ylmethylidene)-4-oxo-2-sulfanylidene-3-thiazolidinyl]-1-oxobutyl]amino]-2-hydroxybenzoic acid] | 6.52
